The subject of data set [1] is P53 protein. The data set can be described thus: P53 protein expression of Hep-G2. It counts as cell-based, human. Conditions: Hep-G2 cells, compared with control; concentrations not given. From the text:
(§1) Referring to FIG. 5A and FIG. 5B.
However, treat Hep-G2 with EGCG can reduce the expression of P53 protein to 0.74-fold.

Data set [2] concerns human liver cancer cell line Sk-Hep-1. The data set can be described thus: effect on the cell cycle of Sk-Hep-1. It counts as cell-based. How it is done: (§2) Please refer to FIG. 4A and FIG. 4B. […] Please further refer to the following Table 1 and Table 2.
As shown in FIG. 4A and Table 1, in the cell cycle of Sk-Hep-1, the percentage of G1, S, and G2 phases are about 43.04%, 30.9%, and 23.75% respectively. When treat the Sk-Hep-1 cells with 10 μM of 5-FU alone, the percentage of G1, S, and G2 phases are about 51.51%, 31.19%, and 17.3% respectively. From the comparison with the control, 5-FU can increase the percentage of G1 phase and reduce the percentage of G2 phase. […] From the results, 5-FU combined with EGCG can effectively interrupt the cell cycle of Sk-Hep-1 cells at G1 phase, and prevent the cell cycle from entering S phase.

For data set [3], the system named is P53 protein. The data set can be described thus: P53 protein expression of Sk-Hep-1. It counts as cell-based, human. Conditions: Sk-Hep-1 cells, compared with control; concentrations not given.
Description: as §1

The subject of data set [4] is human liver cancer cell line Hep-G2. Kind of data set: effect on the cell cycle of Hep-G2. The format is cell-based. The procedure:
as §2
Furthermore, as shown in FIG. 4B and Table 2, in the cell cycle of Hep-G2, the percentage of G1, S, and G2 phases are about 52.7%, 26.54%, and 20.76% respectively. When treat the Hep-G2 cells with 10 μM of 5-FU alone, the percentage of G1, S, and G2 phases are about 47.04%, 42.68%, and 10.29% respectively. From the comparison with the control, 5-FU can increase the percentage of S phase and reduce the percentage of G1 phase and G2 phase. […] From the results, 5-FU combined with EGCG can effectively interrupt the cell cycle of Hep-G2 cells at G1 phase, and prevent the cell cycle from entering S phase and G2 phase.

Data set [5] relates to human liver cancer cell line Sk-Hep-1. The data set can be described thus: viability of human liver cancer cell line Sk-Hep-1 after treatment. As to conditions: for viability of Sk-Hep-1: after 48 hours.
Data set [6] concerns human leukemia cell line K562. Kind of data set: viability of human leukemia cell line K562. As to conditions: 5-FU alone. It counts as cell-based. From the text:
(§3) Please refer to FIG. 6A and FIG. 6B.

Data set [7] deals with human leukemia cell line Jurkat T. The data set can be described thus: viability of human leukemia cell line Jurkat T. The format is cell-based. Conditions: 5-FU alone.
Description: as §3

The source of these data is patent US20090068295A1, “Composition for treating cancer and method of using the same” (Chang Gung University, priority 2007, published 2009).

Consider `O=C(O[C@@H]1Cc2c(O)cc(O)cc2O[C@@H]1c1cc(O)c(O)c(O)c1)c1cc(O)c(O)c(O)c1` [EGCG, Epigallocatechin gallate], for which the “expression of P53 protein” value in data set [1] was 0.74 fold; in data set [3], 1.8 fold. The “Cell cycle phase G1 (%)” value amounted to 54.41 ± 5.4% in data set [2] (EGCG, 50 μM); 56.60 ± 3.8% in data set [2] (EGCG, 100 μM); 53.92 ± 1.9% in data set [2] (EGCG, 250 μM); 62.15 ± 2.4% in data set [4] (EGCG, 50 μM); 62.23 ± 5.7% in data set [4] (EGCG, 100 μM); 61.83 ± 1.6% in data set [4] (EGCG, 250 μM). For the same molecule, the “Cell cycle phase G2 (%)” value in data set [2] (EGCG, 50 μM) is 22.09 ± 2.2%; in data set [2] (EGCG, 100 μM), 19.5 ± 0.7%; in data set [2] (EGCG, 250 μM) it was 17.55 ± 1.7%; in data set [4] (EGCG, 50 μM), 9.33 ± 4.7%; in data set [4] (EGCG, 100 μM), 11.51 ± 4.1%; in data set [4] (EGCG, 250 μM) it was 9.63 ± 1.7%. For the same molecule, the “Cell cycle phase S (%)” value is listed as 23.51 ± 3.2% in data set [2] (EGCG, 50 μM); 23.90 ± 3.1% in data set [2] (EGCG, 100 μM); 28.53 ± 2.3% in data set [2] (EGCG, 250 μM); 28.52 ± 4.3% in data set [4] (EGCG, 50 μM); 26.26 ± 3.5% in data set [4] (EGCG, 100 μM); 28.53 ± 1.3% in data set [4] (EGCG, 250 μM). The “viability of Sk-Hep-1” value in data set [5] (50 μM of EGCG) is reported as “about 90%”; in data set [5] (100 μM of EGCG) it was approximately 80%; in data set [5] (250 μM of EGCG) it was approximately 60%; in data set [5] (500 μM of EGCG) it was approximately 50%.

Usually viability stands for a per cent measure of how many cells are alive, often set against a control. On to `O=c1[nH]cc(F)c(=O)[nH]1` [5-FU, 5-Fluorouracil], for which the “expression of P53 protein” value in data set [1] and in data set [3] was 1.64 fold in each case. In addition, the “Cell cycle phase G2 (%)” value in data set [2] (5-FU, 10 μM) was 17.30 ± 0.3%; in data set [4] (5-FU, 10 μM), 10.29 ± 2.5%. The “Cell cycle phase S (%)” value was found to be 31.19 ± 1.4% in data set [2] (5-FU, 10 μM) and 42.68 ± 2.4% in data set [4] (5-FU, 10 μM). The “effect on the viability of K562” value in data set [6] was “almost no effect”. In addition, the viability at 10 µM in data set [5] (Homo sapiens, SK-HEP1, 48 h, read-out: viability of Sk-Hep-1) was approximately 75%. In data set [7], the “viability of Jurkat T” value is recorded as “about 80%”.
